Measurements taken from patent publication US20110306606A1, “NOVEL 2,6-SUBSTITUTED-3-NITROPYRIDINE DERIVATIVE, METHOD FOR PREPARING SAME, AND PHARMACEUTICAL COMPOSITION INCLUDING SAME” (priority 2008, published 2011).

test system: Osteoblasts (Calvarial cells); conditions: ICR, mouse, 72 h, 1 μM

Compound	Cell viability (%) Calvarial cell
CNc1ccc([N+](=O)[O-])c(Nc2ccc(OC)cc2)n1 [Compound 15, 2-(4-methoxyphenylamino)-6-(methylamino)-3-nitropyridine]	100%
CC(C)(C)c1ccc(Nc2nc(N3CCC(O)CC3)ccc2[N+](=O)[O-])cc1 [Compound 34, 2-[4-(t-butyl)phenylamino]-6-(4-hydroxypiperidino)-3-nitropyridine]	97%
Cc1ccc(Nc2nc(N3CCC(O)CC3)ccc2[N+](=O)[O-])cc1 [Compound 5, 2-(4-methylphenylamino)-6-(4-hydroxypiperidino)-3-nitropyridine]	96%
CC(C)(C)Nc1ccc([N+](=O)[O-])c(Nc2ccc(N3CCOCC3)cc2)n1 [Compound 117, 2-(4-morpholinophenylamino)-6-(t-butylamino)-3-nitropyridine]	90%
CC(C)CNc1ccc([N+](=O)[O-])c(Nc2ccc(F)c(F)c2)n1 [Compound 124, 2-[(3,4-difluoro)phenylamino]-6-(isobutylamino)-3-nitropyridine]	106%
O=[N+]([O-])c1ccc(NCc2ccncc2)nc1Nc1ccc(N2CCOCC2)cc1 [Compound 116, 2-(4-morpholinophenylamino)-6-[(4-pyridyl)methylamino]-3-nitropyridine]	89%
O=[N+]([O-])c1ccc(NCc2cccnc2)nc1Nc1ccc(-c2csc(C3CCCCC3)n2)cc1 [Compound 162, 2-[4-(2-cyclohexylthiazol-4-yl)phenylamino]-6-[(3-pyridyl)methylamino]-3-nitropyridine]	67%
COc1ccc(Nc2nc(N3CCN(C)CC3)ccc2[N+](=O)[O-])cc1 [Compound 26, 2-(4-methoxyphenylamino)-6-(4-methylpiperazin-1-yl)-3-nitropyridine]	90%
COc1ccc(Nc2nc(N3CCNCC3)ccc2[N+](=O)[O-])cc1 [Compound 27, 2-(4-methoxyphenylamino)-6-(piperazin-1-yl)-3-nitropyridine]	97%
O=[N+]([O-])c1ccc(NCCc2ccccn2)nc1Nc1ccc(-c2csc(C3CCCCC3)n2)cc1 [Compound 164, 2-[4-(2-cyclohexylthiazol-4-yl)phenylamino]-6-[2-(2-pyridyl)ethylamino]-3-nitropyridine]	104%
CC(C)CNc1ccc([N+](=O)[O-])c(Nc2cccc(N)c2)n1 [Compound 72, 2-[3-(amino)phenylamino]-6-(isobutylamino)-3-nitropyridine]	106%
CC(C)(C)Nc1ccc([N+](=O)[O-])c(Nc2cccc(N)c2)n1 [Compound 73, 2-[3-(amino)phenylamino]-6-(t-butylamino)-3-nitropyridine]	102%
CC(=O)c1cccc(Nc2nc(NCC(C)C)ccc2[N+](=O)[O-])c1 [Compound 98, 2-(3-acetylphenylamino)-6-(isobutylamino)-3-nitropyridine]	92%
CC(C)c1nccn1-c1ccc([N+](=O)[O-])c(Nc2ccc(C(C)(C)C)cc2)n1 [Compound 36, 2-[4-(t-butyl)phenylamino]-6-[(2-isopropyl)imidazol-1-yl]-3-nitropyridine]	118%
CC(C)c1nccn1-c1ccc([N+](=O)[O-])c(Nc2cccc(N)c2)n1 [Compound 75, 2-[3-(amino)phenylamino]-6-[(2-isopropyl)imidazol-1-yl]-3-nitropyridine]	103%
CC(C)CNc1ccc([N+](=O)[O-])c(Nc2ccc(C(C)(C)C)cc2)n1 [Compound 32, 2-[4-(t-butyl)phenylamino]-6-(isobutylamino)-3-nitropyridine]	91%
Nc1cccc(Nc2nc(NCCCn3ccnc3)ccc2[N+](=O)[O-])c1 [Compound 82, 2-[3-(amino)phenylamino]-6-[(3-imidazol-1-yl)propylamino]-3-nitropyridine]	106%
Cc1ccc(Nc2nc(N3CCN(C)CC3)ccc2[N+](=O)[O-])cc1 [Compound 11, 2-(4-methylphenylamino)-6-(4-methylpiperazin-1-yl)-3-nitropyridine]	103%
Nc1cccc(Nc2nc(N3CCOCC3)ccc2[N+](=O)[O-])c1 [Compound 78, 2-[3-(amino)phenylamino]-6-morpholino-3-nitropyridine]	93%
CC(C)CNc1ccc([N+](=O)[O-])c(Nc2ccc(-n3ccnc3)cc2)n1 [Compound 88, 2-[4-(imidazol-1-yl)phenylamino]-6-(isobutylamino)-3-nitropyridine]	96%
CNc1ccc([N+](=O)[O-])c(Nc2ccc(F)c(F)c2)n1 [Compound 122, 2-[(3,4-difluoro)phenylamino]-6-(methylamino)-3-nitropyridine]	121%

Compound	Cell viability (%) Calvarial cell
CC(C)(C)c1ccc(Nc2nc(NCc3ccncc3)ccc2[N+](=O)[O-])cc1 [Compound 38, 2-[4-(t-butyl)phenylamino]-6-[(4-pyridyl)methylamino]-3-nitropyridine]	96%
CC(C)c1nccn1-c1ccc([N+](=O)[O-])c(Nc2ccc(N3CCOCC3)cc2)n1 [Compound 114, 2-(4-morpholinophenylamino)-6-[(2-isopropyl)imidazol-1-yl]-3-nitropyridine]	92%
CNc1ccc([N+](=O)[O-])c(Nc2ccc(C)cc2)n1 [Compound 1, 2-(4-methylphenylamino)-6-(methylamino)-3-nitropyridine]	106%
Nc1ccc(Nc2nc(N3CCC(O)CC3)ccc2[N+](=O)[O-])cc1 [Compound 61, 2-[4-(amino)phenylamino]-6-(4-hydroxypiperidino)-3-nitropyridine]	102%
CC(C)Nc1ccc([N+](=O)[O-])c(Nc2cccc(N)c2)n1 [Compound 71, 2-[3-(amino)phenylamino]-6-(isopropylamino)-3-nitropyridine]	114%
CC(C)Nc1ccc([N+](=O)[O-])c(Nc2ccc(F)c(F)c2)n1 [Compound 123, 2-[(3,4-difluoro)phenylamino]-6-(isopropylamino)-3-nitropyridine]	112%
Nc1ccc(Nc2nc(N3CCNCC3)ccc2[N+](=O)[O-])cc1 [Compound 62, 2-[4-(amino)phenylamino]-6-(piperazin-1-yl)-3-nitropyridine]	103%
CC(C)c1nccn1-c1ccc([N+](=O)[O-])c(Nc2ccc(-c3csc(C4CCCCC4)n3)cc2)n1 [Compound 157, 2-[4-(2-cyclohexylthiazol-4-yl)phenylamino]-6-[(2-isopropyl)imidazol-1-yl]-3-nitropyridine]	115%
O=[N+]([O-])c1ccc(N2CCOCC2)nc1Nc1ccc(F)c(F)c1 [Compound 129, 2-[(3,4-difluoro)phenylamino]-6-morpholino-3-nitropyridine]	88%
O=[N+]([O-])c1ccc(N2CCC(O)CC2)nc1Nc1ccc(F)c(F)c1 [Compound 126, 2-[(3,4-difluoro)phenylamino]-6-(4-hydroxypiperidino)-3-nitropyridine]	95%
Cc1ccc(Nc2nc(NC(C)C)ccc2[N+](=O)[O-])cc1 [Compound 2, 2-(4-methylphenylamino)-6-(isopropylamino)-3-nitropyridine]	104%
CC(C)(C)c1ccc(Nc2nc(NCc3cccnc3)ccc2[N+](=O)[O-])cc1 [Compound 37, 2-[4-(t-butyl)phenylamino]-6-[(3-pyridyl)methylamino]-3-nitropyridine]	104%
CC(C)CNc1ccc([N+](=O)[O-])c(Nc2ccc(C#N)cc2)n1 [Compound 46, 2-(4-cyanophenylamino)-6-(isobutylamino)-3-nitropyridine]	100%
Nc1cccc(Nc2nc(N3CCNCC3)ccc2[N+](=O)[O-])c1 [Compound 76, 2-[3-(amino)phenylamino]-6-(piperazin-1-yl)-3-nitropyridine]	102%
CN1CCN(c2ccc([N+](=O)[O-])c(Nc3ccc(C(C)(C)C)cc3)n2)CC1 [Compound 41, 2-[4-(t-butyl)phenylamino]-6-(4-methylpiperazin-1-yl)-3-nitropyridine]	85%
Nc1ccc(Nc2nc(N3CCC(N)CC3)ccc2[N+](=O)[O-])cc1 [Compound 65, 2-[4-(amino)phenylamino]-6-(4-aminopiperidino)-3-nitropyridine]	102%
CNc1ccc([N+](=O)[O-])c(Nc2cccc(N)c2)n1 [Compound 70, 2-[3-(amino)phenylamino]-6-(methylamino)-3-nitropyridine]	105%
CN1CCN(c2ccc([N+](=O)[O-])c(Nc3cccc(N)c3)n2)CC1 [Compound 77, 2-[3-(amino)phenylamino]-6-(4-methylpiperazin-1-yl)-3-nitropyridine]	100%
COc1ccc(Nc2nc(N3CCOCC3)ccc2[N+](=O)[O-])cc1 [Compound 29, 2-(4-methoxyphenylamino)-6-morpholino-3-nitropyridine]	93%
CCCCNc1ccc([N+](=O)[O-])c(Nc2ccc(-c3csc(C4CCCCC4)n3)cc2)n1 [Compound 165, 2-[4-(2-cyclohexylthiazol-4-yl)phenylamino]-6-(n-butylamino)-3-nitropyridine]	102%
